For one data set, the system named is Renca cells. The data set is described as follows: Renca sulforhodamine B (SRB) assay, cell growth inhibition. It is filed as cell-based. Particulars: Mus musculus; Renca cells, SRB, 48 h treatment; read-out: IC50. The protocol: (§1) In two independent trials of Renca and Renca-luc cells were plated in triplicate at 8000 cells/well into 96-well plates and incubated for 24 h at 37 °C in a humidified incubator with 5% CO2 followed by a 48 h treatment period at ten-fold dilutions of the drug.

A further data set has as its system Renca-luc cells. The data set is described as follows: Renca-luc sulforhodamine B (SRB) assay, cell growth inhibition. It is filed as cell-based. The note with it: Mus musculus; Renca-luc cells, SRB, 48 h treatment; read-out: IC50. The protocol: as §1
The subject of data set [1] is orthotopic Renca-luc tumors. As to the kind of experiment: Long-term therapy with OXi8007 and/or cabozantinib. The class given is in vivo, mouse. The protocol: (§2) OXi8007, synthesized by the Pinney Laboratory using published procedures, was dissolved in saline, verified to be in the pH range 7.3 to 7.5, and dosed at 250 mg/kg (IP). Cabozantinib (in PEG400 and ultrapure H2O (Milli-Q)) was administered at 3 mg/kg by oral gavage. Anti-PD-1 (10 mg/kg, Bio X Cell, Lebanon, NH, USA) and anti-CTLA-4 (5 mg/kg, Bio X Cell, Lebanon, NH) solutions were administered (IP) on the day before OXi8007 […].
We evaluated the longitudinal effects of OXi8007 alone and in combination with drugs currently favored for treating kidney cancer. For Renca-luc tumor-bearing mice, BLI was performed at least once a week to estimate tumor size, and mice were weighed weekly to adjust the dose as needed. Two treatment cohorts examined syngeneic orthotopic Renca-luc tumors in male BALB/c mice. Treatment started when the tumors reached about 1 × 10^6 photons/s peak total flux on BLI. The first cohort examined OXi8007 with cabozantinib. Mice were divided into four groups. Mice were assigned to groups as soon as there were sufficient to add the same numbers of animals to each group. The specific assignment was defined using the random number function in Excel. […] The second cohort was treated with CKIs and OXi8007 using four groups: Group 5 (OXi8007 + anti-PD-1 (10 mg/kg) + anti-CTLA-4 (5 mg/kg); n = 4), Group 6 (saline + anti-PD-1+ anti-CTLA-4; n = 3), Group 7 (saline + anti-PD-1; n = 3), and Group 8 (saline + anti-CTLA-4; n = 4). CKI antibodies were administered thrice weekly (M, W, F) for the first two weeks after the first treatment with OXi8007, which was administered twice weekly. […] Initial tumor growth was confirmed by palpation, and the mice were assigned to groups such that the first mouse with a confirmed tumor was assigned to Group 5, next to Group 6, etc., ensuring that all groups had both faster- and slower-growing tumors. […] Tumor size (BLI signal) and mouse body weights were compared using an ANOVA and multiple comparisons at a significance level of p < 0.05. Kaplan–Meier survival curves were compared using a non-parametric log-rank test using SAS software (SAS Institute Inc., SAS Viya for learners 4, Cary, NC, USA).

In data set [2] the test system is orthotopic XP258 human tumor xenografts. As to the kind of experiment: Long-term therapy of XP258 human tumor xenografts. Particulars: XP258 in NOD/SCID mice; OXi8007 250 mg/kg IP twice weekly, cabozantinib 3 mg/kg oral daily. It is filed as in vivo, mouse.
Description: The animal procedures were approved by the UT Southwestern Medical Center Institutional Animal Care and Use Committee under APNs 2017-102152 and 2018-102344-CORE. Renca-luc orthotopic tumors were induced by inserting tumor tissue (~1 mm^3) harvested from a donor mouse into the right kidney of syngeneic BALB/c mice (age 8 weeks, male and female; Envigo, Indianapolis, IN, USA), as described previously. Orthotopic XP258 tumors (derived from a patient with pT3aN0M1 clear cell RCC) were obtained from the UT Southwestern Kidney Cancer SPORE [53, 54] and maintained by serial passage. Tumors were induced by inserting tumor tissues from a donor tumor into the left kidney capsule of female NOD/SCID mice (Envigo).
as §2
We evaluated the longitudinal effects of OXi8007 alone and in combination with drugs currently favored for treating kidney cancer. For Renca-luc tumor-bearing mice, BLI was performed at least once a week to estimate tumor size, and mice were weighed weekly to adjust the dose as needed. Two treatment cohorts examined syngeneic orthotopic Renca-luc tumors in male BALB/c mice. Treatment started when the tumors reached about 1 × 10^6 photons/s peak total flux on BLI. The first cohort examined OXi8007 with cabozantinib. Mice were divided into four groups. Mice were assigned to groups as soon as there were sufficient to add the same numbers of animals to each group. The specific assignment was defined using the random number function in Excel. As such, each group included both faster- and slower-growing tumors. […]

For data set [3], the system named is subcutaneous Renca tumors. Further details: method as in PMID 33954115. The note with it: 10 mg/kg, day 14; cited from earlier work.

For orientation: IC50 means the concentration at which inhibition is half-maximal. Regarding `COc1ccc(/C=C\c2cc(OC)c(OC)c(OC)c2)cc1O` [CA4, combretastatin A-4, reference compound], the IC50 in the data set on Renca cells came to 48 ± 2 nM; in the data set with Renca-luc cells, 109 ± 23 nM.
For `COc1cc2nccc(Oc3ccc(NC(=O)C4(C(=O)Nc5ccc(F)cc5)CC4)cc3)c2cc1OC` [cabozantinib, reference compound], in data set [1] (Renca-luc BALB/c mice, over course of treatment), the “Body weight versus untreated control mice” value is given as “significant weight loss”. Also, the “Tumor growth delay (BLI)” value in data set [1] (Renca-luc, versus control) was “significant tumor growth delay”. Moreover, the Median survival time in data set [1] (Renca-luc, OXi8007 250 mg/kg IP twice weekly, cabozantinib 3 mg/kg oral daily) worked out at 64 days. For the same molecule, the Survival versus controls entry in data set [2] is given as “significantly enhanced survival”. Also, in data set [3], the Tumor size reduction is recorded as 50%.

The values are drawn from PMC11898701, “Evaluating Therapeutic Efficacy of the Vascular Disrupting Agent OXi8007 Against Kidney Cancer in Mice” (Cancers, 2025).
